From patent US9422296B2, “Fast-dissociating dopamine 2 receptor antagonists” (Janssen Pharmaceutica NV, priority 2007, dated 2016)
Structures can show the parent of a compound that is named as a salt. Where two headings read alike, the source gives them in different places.

What was measured:
[1] = target: T1, human Dopamine D2L receptor (Homo sapiens, UniProt P14416); assay: In vitro binding affinity for human D2L receptor ([3H]spiperone); details: membranes of human D2L receptor-transfected CHO cells, read-out: D2L binding pIC50 (converted)
T1 construct: expressed in transfected cells; host or cells: CHO cells (membranes)
T1 sequence (P14416 whole entry): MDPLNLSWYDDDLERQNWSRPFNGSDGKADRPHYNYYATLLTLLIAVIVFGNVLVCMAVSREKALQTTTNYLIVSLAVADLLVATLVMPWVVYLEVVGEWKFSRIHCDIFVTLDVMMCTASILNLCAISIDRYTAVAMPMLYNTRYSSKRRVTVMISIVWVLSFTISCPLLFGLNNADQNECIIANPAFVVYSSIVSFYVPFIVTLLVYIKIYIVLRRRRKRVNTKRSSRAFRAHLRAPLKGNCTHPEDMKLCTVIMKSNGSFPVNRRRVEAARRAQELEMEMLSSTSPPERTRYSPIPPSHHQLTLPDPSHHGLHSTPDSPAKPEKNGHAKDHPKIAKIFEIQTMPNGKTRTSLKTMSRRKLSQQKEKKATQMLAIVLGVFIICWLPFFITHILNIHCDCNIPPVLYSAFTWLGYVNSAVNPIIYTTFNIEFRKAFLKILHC
Description: In order to find antipsychotic compounds active against positive and negative symptoms and cognitive impairment, and having an improved safety profile (low EPS incidence and no metabolic disorders), we have screened for compounds selectively interacting with the dopamine D2 receptor and dissociating fast from this receptor, and further having affinity for the dopamine D3 receptor as well as the serotonin 5-HT-6 receptor. Compounds were first screened for their D2 affinity in a binding assay using [^3H]spiperone and human D2L receptor cell membranes.
Pharmacology In Vitro Binding Affinity for Human D2L Receptor
Frozen membranes of human Dopamine D2L receptor-transfected CHO cells were thawed, briefly homogenised using an Ultra-Turrax T25 homogeniser and diluted in Tris-HCl assay buffer containing NaCl, CaCl2, MgCl2, KCl (50, 120, 2, 1, and 5 mM respectively, adjusted to pH 7.7 with HCl) to an appropriate protein concentration optimised for specific and non-specific binding. Radioligand [^3H]Spiperone (NEN, specific activity ˜70 Ci/mmol) was diluted in assay buffer at a concentration of 2 nmol/L. Prepared radioligand (50 μl), along with 50 μl of either the 10% DMSO control, Butaclamol (10^−6 mol/1 final concentration), or compound of interest, was then incubated (30 min, 37° C.) with 400 μl of the prepared membrane solution. Membrane-bound activity was filtered through a Packard Filtermate harvester onto GF/B Unifilterplates and washed with ice-cold Tris-HCl buffer (50 mM; pH 7.7; 6×0.5 ml). Filters were allowed to dry before adding scintillation fluid and counting in a Topcount scintillation counter. Percentage specific bound and competition binding curves were calculated using S-Plus software (Insightful).

[2] = target: T2, human Serotonin 5HT6 receptor (Homo sapiens, UniProt P50406); assay: In vitro binding affinity for human 5HT6 receptor ([3H]lysergic acid diethylamide); details: [3H]LSD, membranes of human 5HT6 receptor-transfected HEK cells; for IC50: read-out: 5-HT6 binding pIC50 (converted)
T2 construct: expressed in transfected cells; host or cells: HEK cells (membranes)
T2 sequence (P50406 whole entry): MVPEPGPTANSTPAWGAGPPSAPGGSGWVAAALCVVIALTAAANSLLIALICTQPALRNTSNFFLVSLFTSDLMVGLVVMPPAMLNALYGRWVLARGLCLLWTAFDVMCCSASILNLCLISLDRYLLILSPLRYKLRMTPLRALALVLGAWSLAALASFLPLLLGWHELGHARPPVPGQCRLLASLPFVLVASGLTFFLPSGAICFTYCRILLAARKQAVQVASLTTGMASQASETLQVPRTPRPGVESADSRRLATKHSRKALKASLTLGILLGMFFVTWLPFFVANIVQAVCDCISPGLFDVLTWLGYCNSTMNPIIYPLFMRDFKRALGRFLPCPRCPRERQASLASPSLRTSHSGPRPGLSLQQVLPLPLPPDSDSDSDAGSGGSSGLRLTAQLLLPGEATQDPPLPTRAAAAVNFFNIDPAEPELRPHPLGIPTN
Procedure: In Vitro Binding Affinity for Human 5HT6 Receptor
Frozen membranes of human Serotonin 5HT6 receptor-transfected HEK cells were thawed, briefly homogenized using an Ultra-Turrax T25 homogeniser and diluted in 50 mM Tris-HCl assay buffer containing 10 mM MgCl2, 1 mM EDTA and 10 μM Pargyline (adjusted to pH 7.4 with HCl) to an appropriate protein concentration optimized for specific and non-specific binding. Radioligand [^3H]Lysergic acid diethylamide (Perkin Elmer, specific activity ˜80 Ci/mmol) was diluted in assay buffer at a concentration of 20 nM. Radioligand (20 μl), along with 40 μl of either the 10% DMSO control, Methiothepine (10^−5 M final concentration), or compound of interest, was then incubated with 70 μl of the prepared membrane solution and 70 μl of WGA coated PVT beads (0.25 mg/well final concentration). After shaking for 24 hours at RT plates were counted in a Topcount™ scintillation counter. Percentage specific binding and competition binding curves were calculated using S-Plus software (Insightful).

[3] = target: T3, human Dopamine D3 receptor (Homo sapiens, UniProt P35462); assay: In vitro binding affinity for human D3 receptor ([125I]iodosulpride)
T3 construct: expressed in transfected cells; host or cells: CHO cells (membranes)
T3 sequence (P35462 whole entry): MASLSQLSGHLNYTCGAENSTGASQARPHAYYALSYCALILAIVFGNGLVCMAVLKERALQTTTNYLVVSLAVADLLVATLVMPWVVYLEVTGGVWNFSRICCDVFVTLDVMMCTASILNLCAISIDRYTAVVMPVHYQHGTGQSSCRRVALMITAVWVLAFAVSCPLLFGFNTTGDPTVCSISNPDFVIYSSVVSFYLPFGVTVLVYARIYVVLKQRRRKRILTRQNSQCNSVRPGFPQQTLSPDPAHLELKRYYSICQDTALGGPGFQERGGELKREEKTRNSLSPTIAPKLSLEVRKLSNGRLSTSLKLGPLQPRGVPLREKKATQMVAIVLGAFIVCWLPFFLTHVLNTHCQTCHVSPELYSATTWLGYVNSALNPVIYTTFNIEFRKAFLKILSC
Procedure: In Vitro Binding Affinity for Human D3 Receptor
Frozen membranes of human Dopamine D3 receptor-transfected CHO cells were thawed, briefly homogenized using an Ultra-Turrax T25 homogeniser and diluted in 50 mM Tris-HCl assay buffer containing 120 mM NaCl, 2 mM CaCl2, 1 mM MgCl2, 5 mM KCl and 0.1% BSA (adjusted to pH 7.4 with HCl) to an appropriate protein concentration optimized for specific and non-specific binding. Radioligand [^125I]Iodosulpride (Amersham, specific activity ˜2000 Ci/mmol) was diluted in assay buffer at a concentration of 2 nM. Prepared radioligand (20 μl), along with 40 μl of either the 10% DMSO control, Risperidone (10^−6M final concentration), or compound of interest, was then incubated with 70 μl of the prepared membrane solution and 70 μl of WGA coated PVT beads (0.25 mg/well final concentration). After shaking for 24 hours at RT plates were counted in a Topcount™ scintillation counter. Percentage specific binding and competition binding curves were calculated using S-Plus software (Insightful).

[4] = [125I]iodosulpride, membranes of human D3 receptor-transfected CHO cells, read-out: D3 binding pIC50 (converted)

Row | SMILES | IC50 [1] [µM] | IC50 [2] [µM] | IC50 [3, 4] [µM] | melting point [°C] | 5-HT6 binding pIC50 [2] | IC50 [3] [µM]
1 | FC(F)(F)c1nnc(N2CCNCC2)cc1-c1ccc(Cl)cc1 [Example E12] | 3.63 | 1.74 | 0.347 | 198.2 |  | 
2 | C[C@@H]1CN(c2cc(-c3ccccc3)c(C(F)(F)F)nn2)C[C@H](C)N1 [Example E4, cis-6-(3,5-Dimethylpiperazin-1-yl)-4-phenyl-3-trifluoromethyl-pyridazine] | 3.8 | 8.51 | > 10 |  |  | 
3 | FC(F)(F)c1nnc(N2CCNCC2)cc1-c1ccc2ccccc2c1 [Example E17] | 7.94 | 0.437 | 0.398 | 128.1 |  | 
4 | CN1CCN(c2cc(-c3ccccc3)c(C(F)(F)F)nn2)CC1 [Example E22] | 0.776 | 1.26 | 0.0389 |  |  | 
5 | FC(F)(F)c1nnc(N2CCNCC2)cc1-c1cccc2ccccc12 (as salt: hydrochloric acid salt) [Example E18] |  |  |  | 281.8 |  | 
6 | Cc1cscc1-c1cc(N2CCNCC2)nnc1C(F)(F)F [Example E29] | 3.55 | 0.537 | > 10 | 101 |  | 
7 | COc1ccccc1-c1cc(N2CCNCC2)nnc1C(F)(F)F (as salt: hydrochloric acid salt) [Example E31] |  |  |  | 287.7 |  | 
8 | CCCN1CCN(c2cc(-c3ccccc3)c(C(F)(F)F)nn2)CC1 [Example E24] | 0.0676 | 5.37 | > 10 | 129.8 |  | 
9 | CC1CN(c2cc(-c3ccccc3)c(C(F)(F)F)nn2)C(C)CN1 (racemic) (as salt: hydrochloric acid salt) [Example E26] |  |  |  | 273 |  | 
10 | FC(F)(F)c1nnc(N2CCNCC2)cc1-c1cc(Cl)ccc1Cl (as salt: hydrochloric acid salt) [Example E34] |  |  |  | 286.3 |  | 
11 | FC(F)(F)c1nnc(N2CCN(Cc3cccnc3)CC2)cc1-c1ccccc1 [Example E37] | 0.562 | > 10 | 0.178 |  |  | 
12 | FC(F)(F)c1nnc(N2CCNCC2)cc1-c1ccc(-c2ccccc2)cc1 [Example E35] | 2.69 | 1.51 | 0.107 | 199.1 |  | 
13 | Cc1csc(-c2cc(N3CCNCC3)nnc2C(F)(F)F)c1 [Example E30] | 0.759 | 0.562 | 0.0537 | 98.1 |  | 
14 | FC(F)(F)c1nnc(N2CCNCC2)cc1-c1cc(Cl)ccc1Cl [Example E34] | 4.68 | 0.794 | 0.0871 |  |  | 
15 | FC(F)(F)c1nnc(N2CCNCC2)cc1-c1ccc(Br)cc1 [Example E14] | 4.07 | 4.27 | > 10 | 138.2 |  | 
16 | Fc1ccc(CN2CCN(c3cc(-c4ccccc4)c(C(F)(F)F)nn3)CC2)cc1F [Example E21] | 2 |  | 1.48 | 185.1 | >5 | 
17 | Fc1ccccc1-c1cc(N2CCNCC2)nnc1C(F)(F)F [Example E33] | 1.23 | 1.29 |  |  |  | 0.0525
18 | Clc1nnc(N2CCNCC2)cc1-c1ccccc1 [Example E20] | 1.41 | 4.37 | 0.151 | 173.9 |  | 
19 | Oc1cccc(-c2cc(N3CCNCC3)nnc2C(F)(F)F)c1 [Example E13] | 5.13 | 3.55 | > 10 |  |  | 

Row | SMILES | IC50 [1] [µM] | IC50 [2] [µM] | IC50 [3, 4] [µM] | melting point [°C] | 5-HT6 binding pIC50 [2] | IC50 [3] [µM]
20 | FC(F)(F)c1nnc(N2CCNCC2)cc1-c1cccs1 [Example E19] | 1.38 | 1.95 | 0.148 | 112.6 |  | 
21 | FC(F)(F)c1nnc(N2CCNCC2)cc1-c1cccc(Cl)c1 [Example E16] | 4.79 | 0.245 | 0.55 | 178.8 |  | 
22 | Fc1cccc(-c2cc(N3CCNCC3)nnc2C(F)(F)F)c1 [Example E15] | 5.75 | 1.55 | 0.631 | 144.7 |  | 
23 | CN(C)c1ccc(-c2cc(N3CCNCC3)nnc2C(F)(F)F)cc1 [Example E32] | > 10 | 0.977 | 1.29 |  |  | 
24 | CN(C)c1ccc(-c2cc(N3CCNCC3)nnc2C(F)(F)F)cc1 (as salt: hydrochloric acid salt) [Example E32] |  |  |  | 198.7 |  | 
25 | FC(F)(F)c1nnc(N2CCN3CCCC3C2)cc1-c1ccccc1 (racemic) (as salt: hydrochloric acid salt) [Example E5, 2-(5-Phenyl-6-trifluoromethyl-pyridazin-3-yl)-octahydro-pyrrolo[1,2-a]pyrazine] |  |  |  | 104.2 |  | 
26 | C[C@@H]1CN(c2cc(-c3ccccc3)c(C(F)(F)F)nn2)C[C@H](C)N1 (as salt: hydrochloric acid salt) [Example E4, cis-6-(3,5-Dimethylpiperazin-1-yl)-4-phenyl-3-trifluoromethyl-pyridazine] |  |  |  | 285.4 |  | 
27 | Cc1cc(F)ccc1-c1cc(N2CCNCC2)nnc1C(F)(F)F [Example E28] | 0.372 | 0.245 | 0.0479 |  |  | 
28 | FC(F)(F)c1nnc(N2CCNCC2)cc1-c1ccc(Cl)s1 [Example E27, 4-(5-Chloro-thiophen-2-yl)-6-piperazin-1-yl-3-trifluoromethyl-pyridazine] | 1.51 | 0.794 | > 10 |  |  | 
29 | CCN1CCN(c2cc(-c3ccccc3)c(C(F)(F)F)nn2)CC1 (as salt: hydrochloric acid salt) [Example E2, 6-(4-Ethylpiperazin-1-yl)-4-phenyl-3-trifluoromethyl-pyridazine] |  |  |  | 281.9 |  | 
30 | Cc1ccc(-c2cc(N3CCNCC3)nnc2C(F)(F)F)cc1 [Example E11] | 1.26 | 0.741 | 0.0891 | 110.6 |  | 
31 | FC(F)(F)c1nnc(N2CCN(Cc3ccccn3)CC2)cc1-c1ccccc1 [Example E38] | 0.282 | > 10 | 0.0871 |  |  | 
32 | CC1CN(c2cc(-c3ccccc3)c(C(F)(F)F)nn2)C(C)CN1 (racemic) [Example E26] | 6.03 | 2.29 | > 10 |  |  | 
33 | FC(F)(F)c1nnc(N2CCNCC2)cc1-c1cccc2ccccc12 [Example E18] | 7.76 | 0.158 | > 10 |  |  | 
34 | FC(F)(F)c1nnc(N2CCN(C3CC3)CC2)cc1-c1ccccc1 [Example E23] | 1.86 | > 10 | 0.275 | 152 |  | 
35 | FC(F)(F)c1nnc(N2CCN(Cc3ccccc3)CC2)cc1-c1ccccc1 [Example E36] | 0.0331 | 6.61 | > 10 |  |  | 
36 | CN1CCN(c2cc(-c3ccccc3)c(C(F)(F)F)nn2)CC1 (as salt: hydrochloric acid salt) [Example E22] |  |  |  | 163.3 |  | 
37 | COc1ccccc1-c1cc(N2CCNCC2)nnc1C(F)(F)F [Example E31] | > 10 | 1.12 | 0.479 |  |  | 
38 | FC(F)(F)c1nnc(N2CCN(CC3CC3)CC2)cc1-c1ccccc1 [Example E39] | 0.0603 | 3.89 | > 10 |  |  | 
